# According to patent publication US20120196918A1, “PREVENTING ISLET INFLAMMATION AND DYSFUNCTION AND MAINTAINING PROPER GLUCOSE LEVELS BY CONTROLLING eIF5A AND ITS HYPUSINATION” (priority 2009, published 2012):
# Tested on: eIF5A
# Assay: eIF5A and eIF5A-Hyp levels in islets isolated from siRNA-injected mice (immunoblot, 3H-spermidine)
# Type: in vivo, mouse
# Conditions: si-eIF5A i.p. for three days
# Method: To clarify this, islets were isolated from siRNA-injected mice and their function assessed in vitro. […] In order to further characterize this improvement in islet glucose responsiveness, glucose-stimulated Ca2+ mobilization (GSCa) studies were also performed. GSCa is a measure of islet glucose sensitivity that captures the dynamics of the islet glucose response, which is similar to GSIS (31). The GSCa, as measured by the change in fura-2 AM fluorescence ratio after glucose stimulation, was increased in si-eIF5A-treated islets compared to controls, reflecting the functional improvement seen in GSIS (FIG. 3D). This improved GSCa relative to controls persisted 48 and 72 hours post-isolation (data not shown). […]
# Immunoblot and nitrite and iNOS assays: Whole cell extracts were resolved by electrophoresis on a 4-20% SDS-polyacrylamide gel, followed by immunoblot using anti-eIF5A1, anti-eIF5A2, anti-iNOS, anti-GFP, or anti-actin primary antibodies and fluorophore-labeled secondary antibodies. Immunoblots were visualized using the Li-Cor® Odyssey® system (Li-Cor Biosciences) and quantitated by scanning fluorometry using Odyssey Imaging v. […] Nitrite was quantitated by measuring nitric oxide-derived nitrite from INS-1 cell culture medium using the Griess reagent (Promega) according to the manufacturer's recommendations. iNOS activity was measured using a commercially available kit (Cayman). […]
substance,measurement,value
"5′-AACGGAAUGACUUCCAGCUGA-3′ (siSTABLE modification, further chemistry not given here) [si-eIF5A]",reduction of eIF5A in islets,~50%
